Assay results from US20210062146A1, “OPTIMIZED IN VITRO CELLULAR SYSTEM FOR BBB PERMEABILITY LINKED NEUROACTIVITY SCREENING” (priority 2019, published 2021).
Where two headings read alike, the source gives them in different places.

Tests used:
[1] = system: direct contact triculture; experiment: Triculture cell viability assay (MTT); type: cell-based, human; settings: following 3 hours of permeation; no significant change vs control (p>0.05)
[2] = system: NVU model (direct contact triculture with SH-SY5Y neurons); settings: for flux: human, 3 h, 50 μM
[3] = system: SH-SY5Y neurons; experiment: BBB permeability linked neuroactivity (Neurite Outgrowth Staining Kit); settings: 50 μM initial apical concentration, 3 hour permeation, n=4
[4] = in vitro; settings: human
[5] = in vitro; settings: human; remark: listed apart in the source
[6] = in vitro; settings: human; remark: listed apart in the source
[7] = system: direct contact triculture (astrocytes, pericytes, HBEC-5i); settings: optimized triculture; radiolabeled marker, 0.25 μCi/mL in HBSS
[8] = system: NVU model (direct contact triculture with SH-SY5Y neurons); experiment: Permeability across optimized NVU model (triculture with SH-SY5Y neurons in basolateral chamber)
[9] = human

Compound	viability of the triculture (MTT), percent of the control [1] [%]	flux [2] [pg/cm^2·sec]	Papp A→B at 150 min, 25 μM [4] [×10⁻⁶ cm/s]	Papp A→B at 180 min [5] [×10⁻⁶ cm/s]	other results
Cn1c(=O)c2c(ncn2C)n(C)c1=O [caffeine]	104±25	269±14	28.9	30.7	neurite outgrowth, percent of control NVU SH-SY5Y cells with vehicle [3]: 122±26%; viability at 3 h, 50 μM [6]: 159 ± 34%
COc1ccc2[nH]cc(CCNC(C)=O)c2c1 [melatonin]				18.3	
PEG-4000					Papp [7]: 0.78×10^−5±0.00 cm/sec
OC[C@@H](O)[C@@H](O)[C@H](O)[C@H](O)CO [mannitol]					Papp A→B at 90 min, 0.25 μCi/mL [4]: 19.9 ×10⁻⁶ cm/s
CS(=O)(=O)CCNCc1ccc(-c2ccc3ncnc(Nc4ccc(OCc5cccc(F)c5)c(Cl)c4)c3c2)o1 [Lapatinib]					detection in the receiver chamber after 3 hours [8]: undetectable
NC(=O)N1c2ccccc2C=Cc2ccccc21 [carbamazepine]	103±5	310±9	27.7		Papp [2]: 25.37±2.80×0^−6 cm/sec; viability at 3 h, 50 μM [6]: 96 ± 18%
N[C@@H](Cc1c[nH]cn1)C(=O)O [L-histidine]					Papp A→B at 90 min, 0.25 μCi/mL [4]: 52.6 ×10⁻⁶ cm/s
inulin					Papp [7]: 1.55×10^−5±0.01 cm/sec
CN1CCN(C2=Nc3cc(Cl)ccc3Nc3ccccc32)CC1 [clozapine]	99±4	372±19	8.15	11.4	change in permeation rate across the NVU model in comparison to the optimized triculture alone [2]: significant increase; neurite outgrowth, percent of control NVU SH-SY5Y cells with vehicle [3]: 111±12%; viability at 3 h, 50 μM [6]: 143 ± 20%
COc1cc2c(c(OC)c1OC)-c1ccc(OC)c(=O)cc1[C@@H](NC(C)=O)CC2 [colchicine]					Papp A→B at 150 min, 25 μM [9]: 18.7 ×10⁻⁶ cm/s
COc1cc2nc(N3CCN(C(=O)c4ccco4)CC3)nc(N)c2cc1OC [prazosin]	82±6	166±14	6.16	3.9	change in permeation rate across the NVU model in comparison to the optimized triculture alone [2]: significant decreases
